“And” between values parts separate entries of the source, which are not always exact repeats. Identical values can stand only once. Like-named read-outs stand apart in the source and are kept apart here.

A short description of data set [1]: In vitro percutaneous absorption and penetration, porcine ear skin. The class given is in vitro ADME. How it is done:
Fresh porcine ears were obtained from local slaughterhouse. Dorsal side skin was surgically removed from the ears. Hairs were trimmed off with an electric trimmer. Subcutaneous fat was carefully cleaned. […] They were stored at −20° C. until use.
Compound 2 was dispersed into Labrasol® (Gattefosse, France) The mixture was heated to 35° C. and stirred until solubilized. Final concentrations: 0.108% and 0.316%. The final products are clear and somewhat viscous solutions.
The skin samples were mounted on Zyleris' High-Throughput Screening (HTS) station. Each individual cell has a diffusion area of 0.503 cm^2 (8 mm in diameter). The receptor chamber was filled with 2.0 ml of 5% Oleth-20 in 1×PBS buffer, pH 7.4 (10 mM Phosphate, 138 mM NaCl and 2 mM KCl), which was continuously mixed at 200 r.p.m. The screening experiments were carried out at 32±0.1° C. Oleth-20 is a polyethylene glycol ether of Oleyl Alcohol [Poly(oxy-1,2-ethanediyl) 20 mol Ethylene Oxide average molar ratio] (Spectrum Chemical, California).
The samples were dosed at 5 mg for both formulations. Each formulation was run in three replicates. At the end of each time interval (2, 12, and 24 h), the skin surface was wiped with cotton ball. The standard tape-stripping method was used to remove the stratum corneum (SC) layer. Repeated tape-stripping was continued until SC layer was disappeared (15 strips). Compound 2 absorbed in epidermis/dermis layer was collected by solvent extraction with DMSO. After tape-stripping, the remaining skin samples were minced and vortexed with 1.5 ml DMSO. The supernatant was separated. The extraction step was repeated three times. The supernatants were combined and ready for analysis.
The analysis was carried out with a Shimadzu LC-10ADVP instrument with Varian Polaris 3 C18-A, 50×3.0 mm, column. Mobile Phase A: 0.1% formic acid in water. Mobile Phase B: 0.1% formic acid in methanol. Flow rate: 0.4 ml/min.
MS system is an AB Scienx API4000 operated at positive ionization mode. The calibration range is 2.50-25,000 ng/ml.
Quality control of the screening experiments was established by measuring mass balances of a couple of selected runs (spot-check). Measurement of mass balance is to determine total amount of 2 recovered after each experiment. After the selected experiments, total amount of 2 left on the skin surface, absorbed in stratum corneum, in epidermis/dermis layer, and collected in the receptor medium was extracted and determined by LC-MS/MS analysis. The total amount was then compared to the initial dosing amount to determine recovery percentage. Two of the 12 hr runs for the 0.316% formulation was selected for the spot-check. […] They are within acceptable range of 80-120%.

Data set [2] relates to PC-3, HEK293, NIH-3T3, A375, MDA-MB-231. As to the kind of experiment: BrdU uptake by non-hematopoietic cell lines compared with PBMC and Jurkat. The class given is cell-based. The following applies: stimulated and non-stimulated cells. How it is done:
(§1) Cells were depleted of fetal calf serum (FCS) for 12 hours. They were then stimulated to proliferate by addition of ConA (10 μg/ml) for PBMC from healthy individuals and for Jurkat cells, FCS (10%) for HEK293 and A375 cells, PDGF (30 ng/ml) for NIH 3T3 cells, and EGF (30 ng/ml) for MDA-MB-231, Cells (1×10^5) were cultured in 96-well plates for 3 days in the presence or absence of inhibitors at the concentrations specified in the text. Each condition was tested in duplicate wells.
(§2) Proliferation was assessed by BrdU incorporation using a colorimetric ELISA kit (Roche, Germany). Subsequent to labeling with 10 μM BrdU, DNA was denatured and the cells were incubated with anti-BrdU-POD, prior to the addition of colorimetric substrate (TMB). The reaction product was quantified by measuring absorbance at 450 nm in an ELISA plate reader (ELx800 BIO-TEK Instruments Inc.).
(§3) To characterize the mode of action of 2 (S101) in more detail, we first examined whether 2 inhibits non-hematopoietic cell lines. We studied the effect of 2 on the growth of four cell lines: NIH 3T3 (mouse embryonic fibroblasts), A-431 (human vulval carcinoma cells), MDA-MB-468 (human breast carcinoma cells), and PANC-1 (human pancreatic carcinoma cells) (FIGS. 1A-B). We also tested the inhibitors on human keratinocytes. […]

Another data set deals with HEK293. As to the kind of experiment: HEK293 proliferation, BrdU uptake. The class given is cell-based. The settings on record: Homo sapiens. How it is done: as §1, §2, §3
Another data set deals with T1, ZAP-70 (Homo sapiens, UniProt P43403).
T1 construct: We also immunoprecipitated the ZAP-70 kinase from the treated/untreated cells; endogenous in cells; host or cells: Jurkat
As to the kind of experiment: SLP-76 kinase assay with ZAP-70 immunoprecipitated from treated Jurkat cells. The class given is cell-based. The settings on record: ZAP-70 from Jurkat cells treated 16 h, recombinant SLP-76 substrate, dose-dependent. As to the method: ZAP-70 was immunoprecipitated as described above. The immune complexes were washed 2 times with lysis buffer and 2 times with kinase buffer (50 mM Tris pH 7.5, 100 mM NaCl and 10 mM MgCl2). The beads were resuspended in 30 μl of kinase buffer containing 3 μg of His-tagged, full-length human SLP-76 protein (kindly provided by Dr. Yablonski, Technion, Israel), and the kinase reactions were initiated by the addition of 10 μl kinase buffer containing 5 μM ATP. The reactions proceeded for 15 min at 30° C. and were stopped by the addition of 6 μL EDTA (100 mM) and sample buffer. The results were analyzed by western blot [Yablonski, 1998]
Jurkat cells were treated with 2 for 16 h, and SLP-76 phosphorylation was measured by immunoprecipitation of SLP-76 protein followed by western blotting with an antibody to the phosphorylated tyrosines of the protein (FIG. 6A). We also immunoprecipitated the ZAP-70 kinase from the treated/untreated cells, and tested its ability to phosphorylate recombinant SLP-76 protein as substrate (FIG. 6B). […] Presumably the remaining SLP-76 activity was sufficient to allow IL-2 secretion.

The subject of the next data set is PBMC and Jurkat cells. As to the kind of experiment: Cell cycle analysis by FACS. The class given is cell-based, human. The settings on record: treated cells, 0.5 μM S101. How it is done:
The effects of the inhibition of the cell cycle were analyzed with a fluorescence-activated cell sorter (FACS). Cells were grown in 60 mm diameter plates (Nunc) and were treated with inhibitor for 12 and 24 h. After the indicated time, cells were pooled, pelleted by centrifugation, washed in phosphate-buffered saline (PBS), and fixed with cold 70% ethanol for a minimum of 12 h. Cells were re-pelleted and resuspended in PBS. 50 μg/ml of RNase A was added in the dark for 30 minutes followed by 5 μg/ml of propidium iodide for FACS analysis (Becton Dickinson FACScan).
The fraction of cells in G2 increased from 30% in the untreated cells to 50% in the treated cells.

T1 sequence (P43403 whole entry): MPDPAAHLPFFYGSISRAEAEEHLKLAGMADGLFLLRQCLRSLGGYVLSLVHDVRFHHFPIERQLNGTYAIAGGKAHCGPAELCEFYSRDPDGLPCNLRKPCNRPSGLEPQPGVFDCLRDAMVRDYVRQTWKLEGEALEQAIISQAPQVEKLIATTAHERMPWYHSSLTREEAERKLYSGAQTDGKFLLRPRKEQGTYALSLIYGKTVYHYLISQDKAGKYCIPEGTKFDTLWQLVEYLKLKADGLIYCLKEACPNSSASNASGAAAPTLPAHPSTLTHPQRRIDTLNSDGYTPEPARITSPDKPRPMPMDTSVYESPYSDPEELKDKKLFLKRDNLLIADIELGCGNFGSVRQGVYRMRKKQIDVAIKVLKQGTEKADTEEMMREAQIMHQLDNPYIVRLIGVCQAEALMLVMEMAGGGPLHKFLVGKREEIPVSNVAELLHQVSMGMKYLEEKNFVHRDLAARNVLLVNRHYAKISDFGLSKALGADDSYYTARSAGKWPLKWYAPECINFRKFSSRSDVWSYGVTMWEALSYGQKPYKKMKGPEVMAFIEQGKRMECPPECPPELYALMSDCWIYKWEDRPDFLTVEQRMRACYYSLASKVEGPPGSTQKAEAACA

As for `COc1cc(-c2nc(Nc3ccc(C)cc3)c3ccccc3n2)cc(OC)c1OC` [Compound 2, N-p-tolyl-2-(3,4,5-trimethoxyphenyl)quinazolin-4-amine], the “skin concentration relative to the IC50” value in data set [1] (after 24 h, 0.3% 2 in Labrasol) turned out to be 1000 folds. The “final concentration in the skin (epidermis/dermis)” value in data set [1] (after 24 h, initial concentration 0.3% 2 in Labrasol, estimated) is “higher than 114 μM”. Also, in data set [1] (porcine ears skin, Labrasol formulation), the “penetration of the epidermis/dermis layer” value is on record as “able to penetrate”. Further, in data set [1] (two 12 hr runs, 0.316% formulation), the “recovery percentage (mass balance)” value was 89% and 114%. Besides, the “IC50 values in various cells in comparison to IC50 for PBMC and Jurkat cells” value in data set [2] is “higher by two orders of magnitude”. In addition, the concentration for half-maximal inhibition (IC50) in the data set on HEK293 (HEK293, non-stimulated, read-out: IC50 of non-stimulated cells) was roughly 10 µM; with HEK293 (HEK293, serum (FCS 10%) activated, read-out: IC50 of stimulated cells) it was roughly 10 µM. Moreover, the “activity of ZAP-70” value on ZAP-70 is “inhibited”. This compound also yielded a sub-G1 population in the data set on PBMC and Jurkat cells (untreated 2%) of 9.5%. Besides, in the data set on PBMC and Jurkat cells (untreated 30%), the “fraction of cells in G2” value stood at 50%.

Source of the values: patent publication US8759363B2, “Quinazoline-based T cell proliferation inhibitors” (Yissum Research Development Company of the Hebrew …, priority 2010, dated 2014).
